What was measured:
Edwardsiella tarda = assay: Antibacterial activity against […] QDIO-10 assessed as reduction in microbial growth by microtiter plate reader assay; format: functional
HCT-116 = assay: Cytotoxicity against human HCT-116 cells assessed as reduction in cell viability after 72 hrs by MTT assay; format: functional, cell-based
MCF7 = assay: Cytotoxicity against human MCF7 cells assessed as reduction in cell viability after 72 hrs by MTT assay; format: functional, cell-based
HepG2 = assay: Cytotoxicity against human HepG2 cells assessed as reduction in cell viability after 72 hrs by MTT assay; format: functional, cell-based
Vibrio parahaemolyticus = assay: Antibacterial activity against Vibrio parahaemolyticus QDIO-8 assessed as reduction in microbial growth by microtiter plate reader assay; format: functional
Escherichia coli = assay: Antibacterial activity against Escherichia coli EMBLC-1 assessed as reduction in microbial growth by microtiter plate reader assay; format: functional
[1] = Homo sapiens, HCT-116, 72 h, read-out: IC50
[2] = Homo sapiens, MCF7, 72 h, read-out: IC50
[3] = Homo sapiens, HepG2, 72 h, read-out: IC50

MIC (Edwardsiella tarda) [µg/mL] | Structure (SMILES) | IC50 (HCT-116; [1]) [µM] | IC50 (MCF7; [2]) [µM] | IC50 (HepG2; [3]) [µM] | other results
8 | C[C@H]1C/C=C/[C@H]2[C@@H]3O[C@]3(C)[C@@H](C)[C@H]3[C@H](Cc4ccccc4)NC(=O)[C@]32OC(=O)/C=C/[C@H](O)CCC1 | – | – | – | –
– | C=C1[C@@H](C)[C@H]2[C@H](Cc3ccccc3)NC(=O)[C@]23C(=O)/C=C/[C@H](O)CCC[C@@H](C)C/C=C/[C@H]3[C@@H]1O [DEOXAPHOMIN] | 7.6 | 7 | 7.1 | –
0.5 | O=C(N[C@H](CO)[C@H](O)c1ccc([N+](=O)[O-])cc1)C(Cl)Cl [CHLORAMPHENICOL] | – | – | – | MIC (Vibrio parahaemolyticus): 2 µg/mL
– | C=C1[C@@H](C)[C@H]2[C@H](Cc3ccccc3)NC(=O)[C@]23OC(=O)[C@@H](S[C@H]2CC(=O)CCC[C@@H](C)C/C=C/[C@H]4[C@H](O)C(=C)[C@@H](C)[C@H]5[C@H](Cc6ccccc6)NC(=O)[C@]54OC2=O)CC(=O)CCC[C@@H](C)C/C=C/[C@H]3[C@@H]1O | – | – | – | MIC (Escherichia coli): 2 µg/mL
– | C=C1[C@@H](C)[C@H]2[C@H](Cc3ccccc3)NC(=O)[C@]23OC(=O)/C=C/[C@H](O)CCC[C@@H](C)C/C=C/[C@H]3[C@@H]1O [CYTOCHALASIN B] | 12 | 5.2 | 9.5 | MIC (Vibrio parahaemolyticus): 4 µg/mL
8 | C=C1[C@@H](C)[C@H]2[C@H](Cc3ccccc3)NC(=O)[C@]23OC(=O)/C=C/[C@H](O)[C@H](O)CC[C@@H](C)C/C=C/[C@H]3[C@@H]1O | 9.5 | 6 | 6.4 | –
– | C=C1[C@@H](C)[C@H]2[C@H](Cc3ccccc3)NC(=O)[C@]23OC(=O)/C=C/CCCC[C@@H](C)C/C=C/[C@H]3[C@@H]1O | – | – | – | IC50 (HCT-116; hct-116): Not Active; IC50 (MCF7; mcf7): Not Active; IC50 (HepG2; hepg2): Not Active
